Columns and labels:
[1] = test system: anesthesia/surgery-induced delirium-like behavior in mice; experiment: Buried Food Test after anesthesia/surgery; format: in vivo
Source text: (§1) Mice Anesthesia and Surgery. 18-month-old C57BL/J6 female mice were adaptive in lab for 3 days. The mice were randomly assigned to the anesthesia/surgery group or control group by weight. […] Specifically, we anesthetized each of the mice using 1.4% isoflurane in 100% oxygen in a transparent acrylic chamber. Fifteen minutes after the induction, we moved the mouse out of the chamber. Isoflurane anesthesia was maintained via a cone device, and one 16-gauge needle was inserted into the cone near the nose of the mouse to monitor the concentration of isoflurane. We made a longitudinal midline incision from the xiphoid to the 0.5 centimeter proximal pubic symphysis on the skin, abdominal muscles and peritoneum. We then sutured the incision layer by layer with 5-0 Vicryl thread.
(§2) WS635 Treatment. WS635 was dissolved in corn oil with 10% DMSO, each of the mice will be injected with WS635 solution in the dose of 40 mg/kg for 0.2 ml through IP at 30 minutes before control condition or anesthesia/surgery by using 27G×½ needles. The mice in control group received 0.2 ml of corn oil with 10% DMSO.
(§3) Behaviors Tests. […] We will perform the behavior tests in groups of 3 mice and finished them within 50 minutes, which mimics the certain features of clinical evaluation of delirium in patients.
Buried Food Test. Specifically, two days before the test, we will give each mouse 2 pieces of the sweetened cereal. […]

[2] = test system: anesthesia/surgery-induced delirium-like behavior in mice; experiment: Y Maze Test after anesthesia/surgery; format: in vivo; conditions: 40 mg/kg IP 30 minutes before anesthesia/surgery
Source text: as §1, §2, §3
Y Maze Test. Specifically, the Y maze, made of gray polyvinylene, will be placed in a quiet and illuminated room. […]

[3] = test system: anesthesia/surgery-induced delirium-like behavior in mice; experiment: Open Field Test after anesthesia/surgery; format: in vivo; conditions: 40 mg/kg IP 30 minutes before anesthesia/surgery
Source text: as §1, §2, §3
Open Field Test. Specifically, the mouse will be gently placed in the center of an open field chamber (40×40×40 centimeters) under dim light and will be allowed to move freely for 5 minutes. The movement parameters of the mouse will be monitored and analyzed via a video camera connected to the Any-Maze animal tracking system software (Stoelting Co., Wood Dale, IL). The total distance moved (meters), the time (seconds) spent in the center of the open field, the freezing time (seconds) and the latency (the time in seconds for the mice to reach to the location at the first attempt) to the center of the open field will be recorded and analyzed. The floor of the open field will be cleaned with 70% ethanol solution between each test. […]

[4] = test system: anesthesia/surgery-induced delirium-like behavior in mice; experiment: delirium-like behaviors overall (composite Z score) after anesthesia/surgery; format: in vivo
Source text: as §1, §2
Behaviors Tests. […] We will perform the behavior tests in groups of 3 mice and finished them within 50 minutes, which mimics the certain features of clinical evaluation of delirium in patients. […]

[5] = test system: anesthesia/surgery-induced cognitive impairment in mice; experiment: anesthesia/surgery-induced cognitive impairment in mice; format: in vivo; conditions: 1.4% isoflurane and abdominal surgery
Source text: as §1
Mice Anesthesia for isoflurane-induced cognitive impairment experiment. 8 month-old C57BL/6J mice. Anesthesia: 1.4% isoflurane for two hours.
WS635 Treatment for isoflurane-induced cognitive impairment experiment. WS635 was dissolved in 10% DMSO plus corn oil. Each mouse received 26.4 mg/kg WS635 or same volume of vehicle (10% DMSO plus corn oil) at 30 minutes before the anesthesia. Then, the mice were tested in Fear Conditioning System at 48 hours and 7 days after the anesthesia.
WS635 Treatment. […]

[6] = test system: hepatitis C virus (HCV) replication; conditions: in vitro; cited from earlier work
cyclophilin A = cyclophilin A (Homo sapiens, UniProt P62937); conditions: cited from earlier work
calcineurin = conditions: at concentrations up to 2 μM; cited from earlier work
cytochrome P450 1A2 = conditions: metabolic studies; cited from earlier work
cytochrome P450 2B6 = conditions: metabolic studies; cited from earlier work
cytochrome P450 3A4 = conditions: metabolic studies; cited from earlier work
P-glycoprotein = P-glycoprotein (Homo sapiens, UniProt P08183); conditions: cited from earlier work
stimulated Jurkat cells = conditions: compared with cyclosporine; cited from earlier work
[7] = test system: stimulated human peripheral blood mononuclear cells; conditions: compared with cyclosporine; cited from earlier work
hepatitis C virus (HCV) = conditions: two-drug combination, in vitro; cited from earlier work
[8] = cited from earlier work

Chain of P-glycoprotein (P08183 whole entry): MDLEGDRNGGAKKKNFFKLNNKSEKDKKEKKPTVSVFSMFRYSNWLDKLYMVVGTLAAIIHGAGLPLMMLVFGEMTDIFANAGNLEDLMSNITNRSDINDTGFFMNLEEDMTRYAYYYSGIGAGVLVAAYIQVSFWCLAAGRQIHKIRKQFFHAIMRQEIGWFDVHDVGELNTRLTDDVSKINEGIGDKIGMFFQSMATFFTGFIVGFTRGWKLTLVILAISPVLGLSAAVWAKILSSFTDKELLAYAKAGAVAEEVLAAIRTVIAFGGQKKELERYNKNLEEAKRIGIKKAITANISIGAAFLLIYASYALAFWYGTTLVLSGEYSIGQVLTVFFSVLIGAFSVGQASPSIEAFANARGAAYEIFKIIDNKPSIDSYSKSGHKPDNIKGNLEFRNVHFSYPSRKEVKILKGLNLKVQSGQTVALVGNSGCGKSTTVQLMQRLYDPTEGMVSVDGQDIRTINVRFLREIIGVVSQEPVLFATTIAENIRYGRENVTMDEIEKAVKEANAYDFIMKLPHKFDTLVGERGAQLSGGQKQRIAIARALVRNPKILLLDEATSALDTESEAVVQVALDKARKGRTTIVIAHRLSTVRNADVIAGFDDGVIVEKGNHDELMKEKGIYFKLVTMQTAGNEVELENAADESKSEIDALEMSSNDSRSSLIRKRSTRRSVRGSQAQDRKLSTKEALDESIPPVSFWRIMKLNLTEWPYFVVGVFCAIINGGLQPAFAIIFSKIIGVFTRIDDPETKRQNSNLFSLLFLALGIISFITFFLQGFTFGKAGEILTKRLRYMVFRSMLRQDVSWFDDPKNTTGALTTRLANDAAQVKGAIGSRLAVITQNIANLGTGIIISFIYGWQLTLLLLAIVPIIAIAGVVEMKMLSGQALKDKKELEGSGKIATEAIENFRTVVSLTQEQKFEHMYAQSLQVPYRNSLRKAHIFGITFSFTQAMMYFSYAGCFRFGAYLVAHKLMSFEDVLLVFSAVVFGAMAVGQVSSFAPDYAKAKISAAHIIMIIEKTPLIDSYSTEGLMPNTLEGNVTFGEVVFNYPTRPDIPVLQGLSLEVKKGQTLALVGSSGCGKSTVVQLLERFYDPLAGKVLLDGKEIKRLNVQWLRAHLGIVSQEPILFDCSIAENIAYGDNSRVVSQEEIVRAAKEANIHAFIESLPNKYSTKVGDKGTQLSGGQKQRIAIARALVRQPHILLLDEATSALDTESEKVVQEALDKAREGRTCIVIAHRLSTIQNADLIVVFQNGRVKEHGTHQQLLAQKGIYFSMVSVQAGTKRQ
Chain of cyclophilin A (P62937 whole entry, species assumed): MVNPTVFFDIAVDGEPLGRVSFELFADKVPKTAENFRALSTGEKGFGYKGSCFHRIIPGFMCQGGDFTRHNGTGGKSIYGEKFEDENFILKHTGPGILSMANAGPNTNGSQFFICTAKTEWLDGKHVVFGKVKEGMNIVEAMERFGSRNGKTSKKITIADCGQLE

C/C=C/C[C@@H](C)[C@@H](O)[C@H]1C(=O)N[C@@H](CC)C(=O)N(C)[C@H](SCCN(C)C)C(=O)N(C)[C@@H](CC(C)(C)O)C(=O)N[C@@H](C(C)C)C(=O)N(C)[C@@H](CC(C)C)C(=O)N[C@@H](C)C(=O)N[C@H](C)C(=O)N(C)[C@@H](CC(C)C)C(=O)N(C)[C@@H](CC(C)C)C(=O)N(C)[C@@H](C(C)C)C(=O)N1C [WS635, (3 S,6 S,9S,12R,15 S,18 S,21 S,24S,27R,30S,33 S)-27-((2-(dimethylamino)ethyl)thio)-30-ethyl-33-((1R,2R,E)-1-hydroxy-2-methylhex-4-en-1-yl)-24-(2-hydroxy-2-methy 1propyl)-6,9,18-tri isobutyl-3,21-diisopropyl-1,4,7,10,12,15,19,25,28-nonamethyl-1,4,7,10,13,16,19,22,25,28,3 1-undecaazacyclotritriacontan-2,5,8,11,14,17,20,23,26,29,32-undecaone]
anesthesia/surgery-induced increase of latency to eat food in the buried food test ([1]; 40 mg/kg IP 30 minutes before anesthesia/surgery, 18-month-old C57BL/J6 female mice): can attenuate
anesthesia/surgery-induced changes in Buried Food Test, dose dependence ([1]; mice): dose-dependent manner
anesthesia/surgery-induced decrease of duration in the novel arm in the Y maze test [2]: can attenuate
anesthesia/surgery-induced decrease of number of entries in the novel arm in the Y maze test [2]: can attenuate
anesthesia/surgery-induced change of freezing time in the open field test [3]: can attenuate
anesthesia/surgery-induced decrease of time spent in the center of the open field [3]: can attenuate
anesthesia/surgery-induced increase of latency to the center in the open field test [3]: can attenuate
anesthesia/surgery-induced changes of delirium-like behaviors ([4]; 40 mg/kg): more effectively attenuate
anesthesia/surgery-induced delirium-like behavior (composite Z score) ([4]; FIG. 15): able to attenuate
anesthesia/surgery-induced cognitive impairment [5]: significantly attenuate
suppression of hepatitis C virus (HCV) replication [6]: potent suppression
inhibition of the peptidyl prolyl isomerase activity of cyclophilin A (cyclophilin A): nanomolar concentrations
inhibition of calcineurin phosphatase activity (calcineurin): no detectable inhibition
induction of cytochrome P450 1A2 (cytochrome P450 1A2): did not induce
induction of cytochrome P450 2B6 (cytochrome P450 2B6): did not induce
induction of cytochrome P450 3A4 (cytochrome P450 3A4): did not induce
P-glycoprotein inhibition (P-glycoprotein): weak inhibitor
P-glycoprotein substrate (P-glycoprotein): poor substrate
inhibition of interleukin-2 secretion (stimulated Jurkat cells): weaker inhibitor of interleukin-2 secretion than cyclosporine
inhibition of interleukin-2 secretion [7]: weaker inhibitor of interleukin-2 secretion than cyclosporine
antiviral activity in combination with alpha interferon 2b (hepatitis C virus (HCV)): synergistic antiviral activity
antiviral activity in combination with ribavirin (hepatitis C virus (HCV)): additive antiviral activity
blood and liver concentrations of parent drug versus 50% effective dose in replicon assay ([8]; in vivo, po): exceeded the 50% effective dose
oral bioavailability ([8]; multiple animal species): orally bioavailable

Reference: patent publication US20240016884A1, “WS635 USES THEREOF IN MEDICINE” (WATERSTONE PHARMACEUTICALS (WUHAN) CO., LTD., priority 2021, published 2024)
